Data on 26 compounds can be found in ChEMBL document CHEMBL4627335, “Lead discovery, chemical optimization, and biological evaluation studies of novel histone methyltransferase SET7 small-molecule inhibitors” (Bioorg Med Chem Lett, 2020).

Structures are written as SMILES. Activity calls are given as the source filed them. The calls are words filed in the database; no cut-off is given here. Some results are limits rather than exact numbers.

Data set [1] has as its target T1, Histone-lysine N-methyltransferase SETD7 (Homo sapiens, UniProt Q8WTS6).
T1 sequence (Q8WTS6 whole entry): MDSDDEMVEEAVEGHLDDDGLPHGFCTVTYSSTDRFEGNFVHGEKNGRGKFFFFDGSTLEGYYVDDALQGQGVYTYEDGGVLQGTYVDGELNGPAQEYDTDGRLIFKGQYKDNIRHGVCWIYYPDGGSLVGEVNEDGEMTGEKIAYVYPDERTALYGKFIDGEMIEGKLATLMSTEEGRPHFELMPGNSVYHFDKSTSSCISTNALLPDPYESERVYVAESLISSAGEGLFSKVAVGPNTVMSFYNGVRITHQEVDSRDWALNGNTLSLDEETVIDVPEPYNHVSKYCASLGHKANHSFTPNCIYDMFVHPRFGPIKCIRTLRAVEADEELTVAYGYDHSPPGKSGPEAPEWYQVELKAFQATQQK
The data set can be described thus: Inhibition of SET7 (unknown origin) using biotinylated histone polypeptide as substrate in presence of SAM by AlphaLISA assay. In general terms: Alpha assays give light when donor and acceptor beads are brought close together.

The target of data set [2] is Histone-lysine N-methyltransferase, H3 lysine-36 specific (Homo sapiens) (UniProt Q96L73). Put plainly: Inhibition of NSD1 (unknown origin) at 100 uM.
Data set [3] addresses T2, Histone-lysine N-methyltransferase SUV39H1 (Homo sapiens) (UniProt O43463).
T2 sequence (whole entry): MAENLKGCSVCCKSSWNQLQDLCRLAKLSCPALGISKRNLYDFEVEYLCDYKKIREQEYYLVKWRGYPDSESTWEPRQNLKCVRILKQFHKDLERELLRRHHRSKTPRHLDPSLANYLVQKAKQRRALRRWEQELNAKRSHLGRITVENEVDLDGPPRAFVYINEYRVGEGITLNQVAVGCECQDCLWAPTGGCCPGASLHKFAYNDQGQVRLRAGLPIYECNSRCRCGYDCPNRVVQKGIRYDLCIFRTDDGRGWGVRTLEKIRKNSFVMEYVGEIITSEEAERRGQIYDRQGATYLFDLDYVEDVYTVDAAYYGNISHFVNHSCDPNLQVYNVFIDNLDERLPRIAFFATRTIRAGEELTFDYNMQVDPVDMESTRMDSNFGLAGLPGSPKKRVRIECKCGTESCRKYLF
The data set can be described thus: Inhibition of SUV39H1 (unknown origin) at 100 uM.

A further data set deals with MCF7. The data set can be described thus: Antiproliferative activity against human MCF7 cells expresses endogenous ER by Cell Titer-Glo based luminescence assay.
Data set [4] concerns the target T1, Histone-lysine N-methyltransferase SETD7. Put plainly: Binding affinity to SET7 (unknown origin) by SPR analysis. For orientation: Surface plasmon resonance follows binding to a sensor surface in real time, without labels.
In data set [5] the target is T3, Histone acetyltransferase KAT8 (Homo sapiens) (UniProt Q9H7Z6).
T3 sequence (whole entry): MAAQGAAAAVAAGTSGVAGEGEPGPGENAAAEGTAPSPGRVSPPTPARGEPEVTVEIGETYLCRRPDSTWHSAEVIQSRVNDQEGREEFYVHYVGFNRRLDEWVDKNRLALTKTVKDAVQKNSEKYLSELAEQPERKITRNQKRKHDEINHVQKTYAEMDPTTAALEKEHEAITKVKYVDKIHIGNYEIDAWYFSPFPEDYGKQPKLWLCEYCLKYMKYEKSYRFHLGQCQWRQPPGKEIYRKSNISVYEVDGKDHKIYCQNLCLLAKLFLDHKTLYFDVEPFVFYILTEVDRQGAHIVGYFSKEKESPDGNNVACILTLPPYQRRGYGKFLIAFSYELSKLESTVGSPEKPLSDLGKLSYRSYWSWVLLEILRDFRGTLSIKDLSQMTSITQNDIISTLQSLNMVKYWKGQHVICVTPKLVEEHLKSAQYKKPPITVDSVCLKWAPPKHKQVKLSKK
Put plainly: Inhibition of MOF (unknown origin) at 100 uM.

For data set [6], the target named is T4, Histone-lysine N-methyltransferase SETD7 (Homo sapiens) (UniProt Q8WTS6).
T4 sequence (whole entry): T1 sequence (Q8WTS6 whole entry)
Put plainly: Inhibition of SET7 (unknown origin) at 100 uM.

Data set [7] deals with Histone-lysine N-methyltransferase, H3 lysine-79 specific (Homo sapiens) (UniProt Q8TEK3). Put plainly: Inhibition of DOT1L (unknown origin) at 100 uM.
The next data set relates to MRC5. The data set can be described thus: Cytotoxicity against human MRC5 cells assessed as reduction in cell viability by Cell Titer-Glo based luminescence assay. In general terms: ATP-based viability assays read luminescence as a measure of living cells.
Data set [8] concerns the target T4, Histone-lysine N-methyltransferase SETD7 (Homo sapiens). Put plainly: Inhibition of SET7 in human MCF7 cells assessed as reduction in ERalpha protein expression by Western blot analysis. Type of data set: cell-based.
The next data set relates to HUVEC. Put plainly: Cytotoxicity against HUVEC assessed as reduction in cell viability by Cell Titer-Glo based luminescence assay. As to conditions: human.
The target in data set [9] is T5, Histone-lysine N-methyltransferase EHMT2 (Homo sapiens) (UniProt Q96KQ7).
T5 sequence (whole entry): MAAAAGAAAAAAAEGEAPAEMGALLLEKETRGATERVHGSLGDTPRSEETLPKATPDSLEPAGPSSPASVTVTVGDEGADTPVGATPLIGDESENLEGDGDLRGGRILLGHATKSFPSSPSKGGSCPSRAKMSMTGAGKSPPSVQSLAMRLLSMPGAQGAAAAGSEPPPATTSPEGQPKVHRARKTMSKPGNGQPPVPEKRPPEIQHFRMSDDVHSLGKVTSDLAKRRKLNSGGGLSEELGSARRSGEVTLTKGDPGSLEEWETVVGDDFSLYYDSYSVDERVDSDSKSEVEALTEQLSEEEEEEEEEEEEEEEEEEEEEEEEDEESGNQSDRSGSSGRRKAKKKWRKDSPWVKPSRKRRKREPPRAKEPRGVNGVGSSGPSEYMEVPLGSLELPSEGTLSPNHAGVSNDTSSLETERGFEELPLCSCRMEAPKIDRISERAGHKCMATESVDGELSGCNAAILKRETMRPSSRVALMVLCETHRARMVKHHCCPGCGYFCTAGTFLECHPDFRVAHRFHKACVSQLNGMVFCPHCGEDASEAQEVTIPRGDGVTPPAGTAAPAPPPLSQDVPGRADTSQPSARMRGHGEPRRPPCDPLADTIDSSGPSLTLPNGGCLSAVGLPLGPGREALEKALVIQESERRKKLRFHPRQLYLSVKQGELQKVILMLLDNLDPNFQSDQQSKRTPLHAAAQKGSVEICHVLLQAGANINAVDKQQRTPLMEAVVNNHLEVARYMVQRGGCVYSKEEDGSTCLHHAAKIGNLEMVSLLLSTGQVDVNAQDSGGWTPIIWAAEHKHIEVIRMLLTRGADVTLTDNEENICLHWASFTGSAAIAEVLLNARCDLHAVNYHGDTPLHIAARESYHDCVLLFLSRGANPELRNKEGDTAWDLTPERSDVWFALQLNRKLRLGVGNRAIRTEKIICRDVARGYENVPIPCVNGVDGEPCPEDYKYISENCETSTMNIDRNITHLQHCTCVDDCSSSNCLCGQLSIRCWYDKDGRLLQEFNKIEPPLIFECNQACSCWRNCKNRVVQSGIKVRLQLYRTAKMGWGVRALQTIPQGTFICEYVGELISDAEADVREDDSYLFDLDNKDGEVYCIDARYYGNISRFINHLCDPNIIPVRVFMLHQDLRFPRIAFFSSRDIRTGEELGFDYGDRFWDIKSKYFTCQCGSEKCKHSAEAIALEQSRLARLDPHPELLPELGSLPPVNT
Put plainly: Inhibition of G9a (unknown origin) at 100 uM.

Sequence of Histone-lysine N-methyltransferase, H3 lysine-79 specific (Homo sapiens) (Q8TEK3 whole entry, looked up): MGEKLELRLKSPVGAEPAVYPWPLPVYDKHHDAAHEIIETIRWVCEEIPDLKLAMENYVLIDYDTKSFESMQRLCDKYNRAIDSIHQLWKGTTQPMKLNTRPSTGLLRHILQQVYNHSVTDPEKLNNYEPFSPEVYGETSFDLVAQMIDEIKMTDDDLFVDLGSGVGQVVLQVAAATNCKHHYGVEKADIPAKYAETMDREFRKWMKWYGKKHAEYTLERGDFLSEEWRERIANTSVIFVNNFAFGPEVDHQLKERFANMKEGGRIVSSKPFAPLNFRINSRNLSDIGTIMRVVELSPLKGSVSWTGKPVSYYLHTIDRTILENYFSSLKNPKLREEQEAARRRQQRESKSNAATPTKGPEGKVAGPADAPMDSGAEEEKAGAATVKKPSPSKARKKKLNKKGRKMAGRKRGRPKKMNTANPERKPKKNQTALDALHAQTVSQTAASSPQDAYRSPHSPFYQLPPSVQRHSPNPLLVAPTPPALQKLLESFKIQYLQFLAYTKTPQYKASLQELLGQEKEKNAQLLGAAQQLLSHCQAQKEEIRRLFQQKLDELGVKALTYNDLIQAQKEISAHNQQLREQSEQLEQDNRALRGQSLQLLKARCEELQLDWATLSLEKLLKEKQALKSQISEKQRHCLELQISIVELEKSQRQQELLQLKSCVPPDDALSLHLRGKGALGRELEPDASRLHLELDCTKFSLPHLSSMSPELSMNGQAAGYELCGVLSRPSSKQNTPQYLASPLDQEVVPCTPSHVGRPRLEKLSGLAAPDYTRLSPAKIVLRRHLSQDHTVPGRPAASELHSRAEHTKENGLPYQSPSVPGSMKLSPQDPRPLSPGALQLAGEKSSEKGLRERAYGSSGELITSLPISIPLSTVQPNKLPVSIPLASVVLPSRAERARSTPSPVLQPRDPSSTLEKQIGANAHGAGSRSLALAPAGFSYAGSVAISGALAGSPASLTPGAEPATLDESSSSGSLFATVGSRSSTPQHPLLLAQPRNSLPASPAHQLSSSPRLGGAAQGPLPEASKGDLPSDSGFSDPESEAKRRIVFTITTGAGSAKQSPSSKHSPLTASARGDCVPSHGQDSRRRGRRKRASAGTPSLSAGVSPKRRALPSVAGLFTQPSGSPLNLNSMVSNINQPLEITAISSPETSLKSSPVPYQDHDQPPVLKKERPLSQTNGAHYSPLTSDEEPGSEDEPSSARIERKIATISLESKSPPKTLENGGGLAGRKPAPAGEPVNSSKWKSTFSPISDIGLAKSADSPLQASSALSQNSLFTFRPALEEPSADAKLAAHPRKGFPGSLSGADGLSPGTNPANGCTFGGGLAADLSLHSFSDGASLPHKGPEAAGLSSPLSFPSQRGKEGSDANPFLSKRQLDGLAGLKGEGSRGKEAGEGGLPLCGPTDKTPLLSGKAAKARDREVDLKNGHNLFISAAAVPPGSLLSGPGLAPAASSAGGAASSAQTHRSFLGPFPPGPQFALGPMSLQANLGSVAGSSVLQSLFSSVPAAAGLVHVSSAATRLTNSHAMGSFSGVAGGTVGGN
Sequence of Histone-lysine N-methyltransferase, H3 lysine-36 specific (Homo sapiens) (Q96L73 whole entry): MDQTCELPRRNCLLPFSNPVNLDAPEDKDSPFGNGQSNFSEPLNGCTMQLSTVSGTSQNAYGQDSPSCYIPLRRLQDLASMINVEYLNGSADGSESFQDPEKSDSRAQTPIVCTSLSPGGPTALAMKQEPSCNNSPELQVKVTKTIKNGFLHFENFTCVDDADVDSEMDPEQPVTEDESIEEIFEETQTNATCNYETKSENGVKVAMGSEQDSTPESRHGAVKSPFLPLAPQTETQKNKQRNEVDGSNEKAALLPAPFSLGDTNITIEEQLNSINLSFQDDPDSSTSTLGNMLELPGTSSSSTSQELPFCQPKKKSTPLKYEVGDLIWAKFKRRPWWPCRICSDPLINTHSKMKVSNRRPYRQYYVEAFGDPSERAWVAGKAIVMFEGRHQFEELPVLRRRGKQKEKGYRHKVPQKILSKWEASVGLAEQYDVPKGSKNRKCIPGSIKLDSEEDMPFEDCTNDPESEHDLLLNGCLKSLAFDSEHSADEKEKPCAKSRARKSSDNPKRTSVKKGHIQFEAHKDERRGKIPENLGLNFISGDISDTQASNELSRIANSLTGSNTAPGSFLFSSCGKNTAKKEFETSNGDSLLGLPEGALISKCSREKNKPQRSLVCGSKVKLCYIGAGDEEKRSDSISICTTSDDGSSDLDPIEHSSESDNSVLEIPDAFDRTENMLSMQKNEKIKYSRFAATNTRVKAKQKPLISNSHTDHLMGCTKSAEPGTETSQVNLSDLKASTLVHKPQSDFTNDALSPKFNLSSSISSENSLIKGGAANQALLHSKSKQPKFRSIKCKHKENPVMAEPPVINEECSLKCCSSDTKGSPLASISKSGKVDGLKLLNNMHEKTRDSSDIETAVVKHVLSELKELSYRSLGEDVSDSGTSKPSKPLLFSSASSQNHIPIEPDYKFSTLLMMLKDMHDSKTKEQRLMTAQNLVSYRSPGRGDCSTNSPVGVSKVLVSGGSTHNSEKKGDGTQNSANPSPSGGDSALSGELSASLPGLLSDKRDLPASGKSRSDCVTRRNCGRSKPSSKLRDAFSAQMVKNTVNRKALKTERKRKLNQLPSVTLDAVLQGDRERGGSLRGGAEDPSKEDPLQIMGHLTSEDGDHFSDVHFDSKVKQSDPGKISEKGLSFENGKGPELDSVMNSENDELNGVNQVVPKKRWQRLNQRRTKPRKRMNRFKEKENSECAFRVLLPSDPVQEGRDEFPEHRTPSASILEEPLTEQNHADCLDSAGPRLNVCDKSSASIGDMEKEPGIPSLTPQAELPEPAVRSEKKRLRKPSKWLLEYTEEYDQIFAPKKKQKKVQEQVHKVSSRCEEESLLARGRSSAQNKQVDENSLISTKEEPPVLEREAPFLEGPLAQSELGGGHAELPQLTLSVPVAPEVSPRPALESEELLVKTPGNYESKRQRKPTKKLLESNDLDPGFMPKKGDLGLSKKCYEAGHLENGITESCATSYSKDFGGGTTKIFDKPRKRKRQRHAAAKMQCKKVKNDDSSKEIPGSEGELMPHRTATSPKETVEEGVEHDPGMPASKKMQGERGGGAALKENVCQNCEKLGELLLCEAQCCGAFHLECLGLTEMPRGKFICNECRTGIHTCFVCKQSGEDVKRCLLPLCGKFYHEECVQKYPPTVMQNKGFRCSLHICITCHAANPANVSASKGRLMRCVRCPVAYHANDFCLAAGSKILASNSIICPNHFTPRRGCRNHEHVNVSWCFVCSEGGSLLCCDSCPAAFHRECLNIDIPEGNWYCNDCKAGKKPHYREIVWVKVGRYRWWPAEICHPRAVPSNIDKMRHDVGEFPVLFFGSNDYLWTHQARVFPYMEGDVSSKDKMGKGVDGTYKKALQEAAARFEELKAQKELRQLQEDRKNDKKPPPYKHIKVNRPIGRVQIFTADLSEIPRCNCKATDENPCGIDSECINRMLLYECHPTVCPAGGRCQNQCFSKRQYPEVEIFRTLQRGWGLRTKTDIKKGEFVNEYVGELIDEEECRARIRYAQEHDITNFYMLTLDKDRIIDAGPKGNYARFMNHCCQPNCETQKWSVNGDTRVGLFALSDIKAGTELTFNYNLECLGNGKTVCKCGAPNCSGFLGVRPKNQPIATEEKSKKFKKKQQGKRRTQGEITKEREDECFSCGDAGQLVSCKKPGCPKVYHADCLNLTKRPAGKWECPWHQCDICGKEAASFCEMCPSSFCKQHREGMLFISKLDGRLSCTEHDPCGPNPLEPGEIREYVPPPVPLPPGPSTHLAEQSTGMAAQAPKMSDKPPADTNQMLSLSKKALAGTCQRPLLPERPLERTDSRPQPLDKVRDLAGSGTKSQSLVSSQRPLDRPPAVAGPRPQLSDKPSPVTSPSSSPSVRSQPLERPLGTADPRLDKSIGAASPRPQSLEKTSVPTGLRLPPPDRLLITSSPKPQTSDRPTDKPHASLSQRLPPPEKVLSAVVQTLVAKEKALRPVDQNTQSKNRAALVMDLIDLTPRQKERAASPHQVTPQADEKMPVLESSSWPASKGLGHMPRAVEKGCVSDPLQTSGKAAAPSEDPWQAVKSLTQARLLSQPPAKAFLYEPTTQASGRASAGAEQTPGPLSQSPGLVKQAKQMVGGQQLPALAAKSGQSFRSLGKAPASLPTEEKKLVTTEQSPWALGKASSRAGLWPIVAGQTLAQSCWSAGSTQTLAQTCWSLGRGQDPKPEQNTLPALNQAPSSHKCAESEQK

In the case of `O=C1C=CC(=O)C(c2ccc(CN3CCOCC3)c(NS(=O)(=O)c3ccc(Cl)cc3)c2)=C1`, in data set [1], the IC50 is greater than 200 µM.

Regarding `CC(C)(C)OC(=O)N1CCN(C(=O)c2ccc(-c3ccc(C#N)cc3)cc2)CC1`, in [1], the IC50 is greater than 200 µM.

Regarding `COc1ccc(OC)c(-c2ccc(CN3CCN(C(=O)OC(C)(C)C)CC3)c(N)c2)c1`, the concentration for half-maximal inhibition (IC50) in data set [1] was greater than 200 µM.

In the case of `CC(C)(C)OC(=O)N1CCN(C(=O)c2ccc(-c3cccc(C#N)c3)cc2)CC1`, the IC50 in data set [1] was greater than 200 µM.

Take `N#Cc1cccc(-c2ccc(C(=O)N3CCNCC3)cc2)c1`: the IC50 in [1] is greater than 200 µM.

`Cc1ccc(C2=CC(=O)C=CC2=O)cc1`: the IC50 in data set [1] is greater than 200 µM.

In the case of `COC1=CC(=O)c2ccccc2C1=O` [2-Methoxy-1,4-naphthoquinone], the IC50 in data set [1] is greater than 200 µM.

Consider `O=C1C=CC(=O)C(c2ccc(CN3CCCC3)c(NS(=O)(=O)c3ccc(C(F)(F)F)cc3)c2)=C1`, for which the half-inhibitory concentration (IC50) in [1] was greater than 200 µM.

For `O=C1C=CC(=O)C(c2ccc(Br)cc2)=C1`, the IC50 in [1] is greater than 200 µM.

`O=C1C=CC(=O)C(c2cccc(C(F)(F)F)c2)=C1`: the IC50 in data set [1] is greater than 200 µM.

As for `CC(C)c1ccc(C2=CC(=O)C=CC2=O)cc1`, in data set [1], the IC50 was greater than 200 µM.

`COc1ccc(OC)c(-c2ccc(CN3CCCC3)c(NS(=O)(=O)c3ccccc3)c2)c1`: in [1], the IC50 was greater than 200 µM.

For the compound `N#Cc1cccc(-c2ccc(C(=O)O)cc2)c1`, the IC50 in [1] is greater than 200 µM.

Consider `O=C1C=CC(=O)C(c2ccc(CN3CCOCC3)c(NS(=O)(=O)c3ccc(C(F)(F)F)cc3)c2)=C1`, for which the IC50 in data set [1] was greater than 200 µM.

On to `COc1ccc(OC)c(-c2ccc(CN3CCOCC3)c(NS(=O)(=O)c3ccccc3)c2)c1`, for which the IC50 in data set [1] is greater than 200 µM.

Turning to `O=C1C=CC(=O)C(c2ccc(CN3CCOCC3)c(NS(=O)(=O)c3ccc([N+](=O)[O-])cc3)c2)=C1`, the IC50 in data set [1] is greater than 200 µM.

As for `CN(C)CCNC(=O)c1ccc(-c2ccc(C#N)cc2)cc1`, the IC50 in data set [1] was greater than 200 µM.

Turning to `CN(C)CCNC(=O)c1ccc(-c2cccc(C#N)c2)cc1`, the IC50 in data set [1] was greater than 200 µM.

With `COc1ccc(OC)c(-c2ccc(CN3CCN(C(=O)OC(C)(C)C)CC3)cc2)c1`, in data set [1], the IC50 is greater than 200 µM.

As to `COc1ccc(OC)c(-c2ccc(CN3CCCC3)c(N)c2)c1`, in data set [1], the IC50 is greater than 200 µM.

Turning to `N#Cc1ccc(-c2ccc(C(=O)O)cc2)cc1`, in data set [1], the IC50 is greater than 200 µM.

As for `COc1ccc(OC)c(-c2ccc(CN3CCCC3)c([N+](=O)[O-])c2)c1`, in data set [1], the IC50 is greater than 200 µM.

Regarding `O=C1C=C(O)C(=O)c2ccccc21` [LAWSONE], in [1], the IC50 is greater than 200 µM.

As to `COC(=O)c1ccc(C2=CC(=O)C=CC2=O)o1`, the inhibition result in data set [2], in [3], in data set [5], in data set [7] and in data set [9] was “inactive” in each case. For the same compound, the IC50 is 25.8 µM with MCF7 and 15.9 µM in data set [1]. The compound also displayed a Kd in [4] of 18 µM. The inhibition entry in [6] is “Active”. In addition, the Activity result in the data set with MRC5 and in the data set with HUVEC was “Toxic” each time. Besides, the inhibition entry in data set [8] is “Dose-dependent effect”.

For the compound `Cc1ccc(C2=CC(=O)C=CC2=O)cc1C`, the IC50 in data set [1] was greater than 200 µM.

In the case of `CCCCc1ccc(C2=CC(=O)C=CC2=O)cc1`, the IC50 in data set [1] is greater than 200 µM.

As usually defined, the IC50 is the concentration needed to halve the response being measured. The term Kd denotes the equilibrium constant for the complex coming apart. A high value points to lower affinity.
